According to publication PMC6873674, “Inhibition of Plasmodium sporogonic stages by ivermectin and other avermectins” (Parasites & Vectors, 2019):

Assays:
[1] = tested on: P. berghei oocyst formation; test: Bioluminescence assay of oocyst formation in vitro (Day0-Day3); assay type: cell-based, Plasmodium berghei; settings: mean
Description: (§1) Purified ookinetes were seeded with Drosophila melanogaster S2 cells (Drosophila Genomics Resource Center, Bloomington, USA) in a 1:10 ratio (10^4 ookinetes and 10^5 S2 cells) in Schneider’s medium (S0146, Sigma-Aldrich) supplemented with 15% FBS, penicillin/streptomycin (50 U/ml, 50 µg/ml) and gentamicin (50 µg/ml) to promote oocyst development. Oocysts were co-cultured with D. melanogaster S2 cells in flat bottom 96-well plates (Corning, New York, USA) for up to 15 days at 19 °C. One-quarter of the medium was changed 3 times per week (every 48 to 72 h), and 10^5 S2 cells were added once per week. In parallel, S2 cells were maintained at 27 °C in Schneider’s medium (S0146, Sigma-Aldrich) supplemented with 10% FBS and penicillin/streptomycin (50 U/ml, 50 µg/ml).
(§2) A bioluminescence assay was used to assess the development of the mosquito stages of PbCSGFP-Luc. In order to evaluate the effect of compounds on the development of the parasite’s mosquito stages, samples were collected at 3 different time points to determine the effect on ookinete and oocyst formation, and oocyst maturation, as previously described. The bioluminescence assay was performed using the Firefly Luciferase Assay Kit (Biotium, Hayward, USA) according to the manufacturer’s instructions, with some modifications. Briefly, the whole well contents were collected and spun down, washed with PBS, frozen in 50 µl of lysis buffer (1:5 ratio) and stored at − 20 °C until further use. Collected samples were lysed and 30 µl of the resulting supernatant were transferred into white 96-well plates. Fifty µl of D-luciferin in Firefly luciferase assay buffer (1:50 ratio) were added to the samples and parasite load was determined by measuring luminescence intensity using a microplate reader (Tecan Infinite M200, Zurich, Switzerland).
(§3) The effect of eprinomectin, abamectin, ivermectin, moxidectin, doramectin and emamectin on the Plasmodium mosquito stages was evaluated as previously described. The compounds were dissolved in dimethyl sulfoxide (DMSO) and the amount of DMSO equivalent to that present in the highest compound concentration was used as a control. The effect of 10 µM of each compound was assessed on ookinetes, and on oocyst development and maturation. Briefly, after 1 h of incubation, the compounds were added to 5 µl of infected blood cultures, and the bioluminescence intensity of the parasites on the ookinete cultures was assessed 24 h later. To assess the effect of the compounds on oocyst development and maturation, compounds were mixed with the mature ookinetes, and parasites collected after 3 days of culture or compounds were added to the oocyst culture after 3 days of culture, and parasites collected 15 days later.
(§4) Compound concentration resulting in 50% inhibition (IC50) for oocyst growth and maturation were estimated for eprinomectin, abamectin, ivermectin, moxidectin, doramectin and emamectin (assayed at 0.05, 0.5, 1, 5, 10, 25 and 50 µM) by nonlinear regression analysis.

[2] = tested on: P. berghei oocyst growth/maturation; test: Bioluminescence assay of oocyst growth/maturation in vitro (Day3-Day15); assay type: cell-based, Plasmodium berghei; settings: mean
Description: as §1, §2, §3, §4

[3] = tested on: P. berghei ookinete formation; test: Bioluminescence assay of ookinete formation in vitro; assay type: cell-based, Plasmodium berghei; settings: 10 µM, 24 h
Description: Plasmodium berghei ANKA expressing green fluorescent protein (GFP) and luciferase under the control of the circumsporozoite protein (CSP) promoter (line 784cl1, RMgm-152, PbCSPGFP-Luc) was maintained in Anopheles stephensi mosquitoes and BALB/cByJ mice. To maintain gametocyte infectivity, only up to six passages of parasites from infected to naïve mice were performed. Ookinete in vitro production was performed as previously described. Briefly, BALB/cByJ mice were treated with 0.1 ml phenylhydrazine (25 mg/ml) 3 days prior to infection with 10^7 P. berghei-infected red blood cells (iRBC) obtained from a donor mouse. On the third day after infection, gametocytemia was monitored by light microscopy for the presence of exflagellating gametocytes in ookinete medium (1:4 dilution). […]
A bioluminescence assay was used to assess the development of the mosquito stages of PbCSGFP-Luc. […] Fifty µl of D-luciferin in Firefly luciferase assay buffer (1:50 ratio) were added to the samples and parasite load was determined by measuring luminescence intensity using a microplate reader (Tecan Infinite M200, Zurich, Switzerland).
The effect of eprinomectin, abamectin, ivermectin, moxidectin, doramectin and emamectin on the Plasmodium mosquito stages was evaluated as previously described. […] The effect of 10 µM of each compound was assessed on ookinetes, and on oocyst development and maturation. […]

[4] = tested on: Drosophila melanogaster S2 cells; test: AlamarBlue in vitro cytotoxicity assay; assay type: cell-based; settings: 10 µM, up to 7 days
Description: Compounds were screened for their in vitro cytotoxicity against D. melanogaster S2 cells, using the AlamarBlue® assay (Invitrogen, Carlsbad, USA). This assay allows to measure metabolic activity based on a fluoremetric/colorimetric indicator [28]. To assess the effect of the compounds on cell development, Drosophila melanogaster S2 cells were seeded in a 1:10 ratio (10^5 S2 cells) in Schneider’s medium (S0146, Sigma-Aldrich) supplemented with 15% FBS, penicillin/streptomycin (50 U/ml, 50 µg/ml) and gentamicin (50 µg/ml). All the above-mentioned compounds were added to the S2 cell cultures to a final concentration of 10 µM and the amount of DMSO equivalent to that present in the highest compound concentration was used as a control. Cultures were maintained for 7 days and one-quarter of the medium was changed 3 times per week every 48 to 72 h. Samples were collected every day by removing 120 µl of medium and adding 80 µl of AlamarBlue previously diluted in Schneider’s medium (1:10 dilution) to each well. The suspension was transferred to a 96 well flat bottom plate and incubated for one and a half hours at 37 °C. Fluorescence intensity was then measured using a microplate reader (Tecan Infinite M200) at 530 nm excitation wavelength/590 nm emission wavelength to determine cell viability.

[5] = tested on: P. berghei asexual and sexual blood stages; test: In vivo activity of ivermectin against P. berghei blood stages in infected mice (flow cytometry, microscopy); set-up: species or system Plasmodium berghei (BALB/cByJ mice); settings: single oral gavage 5 mg/kg, up to 5 days after infection
Description: Male BALB/cByJ mice (6–8 weeks-old) purchased from Charles River Laboratories Inc. (Lyon, France) were used. Two parasite lines were employed in the experimental work, a transgenic parasite line termed PbCSGFP-Luc (RMgm-152),which expresses the fusion gene gfp-luc under the control of the csp promotor (PBANKA_0403200) integrated into the silent 230p gene locus (PBANKA_0306000), and the transgenic parasite line PbFluo-frmg (RMgm-164), which expresses GFP under control of the ‘male gametocyte-specific’ promoter of PB000791.03.0 (dynein heavy chain, putative) and RFP under the control of the ‘female gametocyte-specific’ promoter PB000504.02.0 (LCCL domain-containing protein CCP2). The rfp and gfp genes are integrated into the genome in the 230p locus (PBANKA_0306000).
In order to assess the in vivo activity of Iv, five BALB/cByJ (Charles River) mice per experimental group were infected by intraperitoneal injection of 10^7 P. berghei Fluo-frmg-infected red blood cells. Parasitaemia and gametocyteamia were measured the following days by flow cytometry analysis of 4 µl of tail blood. Blood was collected in 200 µl of PBS and 100 µl stored at 4 °C, while the remaining was transferred to 100 µl of PBS containing […] of red fluorescent nucleic acid stain Syto®61 (Thermo Fisher Scientific, Waltham, USA) and incubated for 20 min at room temperature in the dark. The samples were analysed on a LSRFortessa X-20 flow cytometer (Becton, Dickinson and Co., New Jersey, USA). Female and male gametocytes were gated based on the analysis of GFP and Red Fluorescence Protein (RFP) fluorescence, and parasitemia was estimated based on the analysis of Syto®61 and forward scatter. The positive cell population was determined by comparison of infected blood samples with an uninfected blood sample. Results were then analysed with the FlowJo^TM Software (Version 10, FlowJo^TM Software, Ashland, USA). Exflagellation was also monitored every day, until parasitemia reached 3% by microscopy analysis. To this end, 2.5 µl of tail blood were collected and mounted on a glass slide, and 8 min later the number of exflagellation events present in 4 independent fields of vision at 40× were determined. When parasitemia reached up to 3%, either DMSO or ivermectin were administered by oral gavage, at a concentration of 5 mg/kg, to five mice of each experimental group. Parasitemia, gametocytemia and exflagellation were monitored for 3 days after treatment, following which the mice were euthanized, and the experiment was terminated.

Row | Compound | IC50 [1] [µM] | IC50 [2] [µM] | inhibition of ookinete formation (transformation of gametes/zygote into ookinetes) [3] | other results
1 | abamectin | 8.77 | 7.93 |  | 
2 | emamectin | 7.31 | 7.36 | approximately 47% | cytotoxicity against S2 cells (cell viability) [4]: displays some cytotoxicity
3 | CO[C@H]1C[C@H](O[C@H]2[C@H](C)O[C@@H](O[C@@H]3/C(C)=C/C[C@@H]4C[C@@H](C[C@]5(C=C[C@H](C)[C@@H](C6CCCCC6)O5)O4)OC(=O)[C@@H]4C=C(C)[C@@H](O)[C@H]5OC/C(=C\C=C\[C@@H]3C)[C@]54O)C[C@@H]2OC)O[C@@H](C)[C@@H]1O [Doramectin, doramectin] | 7.08 | 4.32 |  | 
4 | eprinomectin | 5.7 | 4.59 |  | 
5 | CO/N=C1\C[C@]2(C[C@@H]3C[C@@H](C/C=C(\C)C[C@@H](C)/C=C/C=C4\CO[C@@H]5[C@H](O)C(C)=C[C@@H](C(=O)O3)[C@]45O)O2)O[C@H](/C(C)=C/C(C)C)[C@H]1C [Moxidectin, moxidectin] |  |  |  | IC50 ([1]; Plasmodium berghei): 10.8 µM; IC50 ([2]; Plasmodium berghei): 5.49 µM
6 | ivermectin | 11.6 | 9.32 | very small and non-significant impact | exflagellation events vs untreated controls [5]: no statistically significant differences; female gametocytemia vs untreated controls [5]: no statistically significant differences; male gametocytemia vs untreated controls [5]: no statistically significant differences; overall parasitemia vs untreated controls [5]: no statistically significant differences
